For 18 molecules, IC50 results are on record in BindingDB's records for doi:10.1016/j.bmcl.2009.06.075 (Pfizer, 2009).

Molecules are shown by their SMILES. A value given as a limit tells only on which side of the number the result lay.

A short description of the assay: Antagonist activity at human P2Y12 receptor assessed as inhibition of ADP-induced platelet-rich plasma aggregation by turbidimetric method.
For the molecule `CCCCOC(=O)N1CCN(C(=O)[C@H](CCC(=O)O)NC(=O)c2cccc(-c3ccccc3)n2)CC1` [(S)-5-(4-(butoxycarbonyl)piperazin-1-yl)-5-oxo-4-(6-phenylpicolinamido)pentanoic acid], the IC50 stood at 28 µM. As for `CCOC(=O)N1CCN(C(=O)[C@H](CCC(=O)O)NC(=O)c2cc(NCCO)cc(-c3ccccc3)n2)CC1` [(S)-5-(4-(ethoxycarbonyl)piperazin-1-yl)-4-(4-(2-hydroxyethylamino)-6-phenylpicolinamido)-5-oxopentanoic acid], the IC50 was 8.1 µM.

On to `CCOC(=O)N1CCN(C(=O)[C@H](CCC(=O)O)NC(=O)c2cc(OCCOC)cc(-c3ccccc3)n2)CC1` [(S)-5-(4-(ethoxycarbonyl)piperazin-1-yl)-4-(4-(2-methoxyethoxy)-6-phenylpicolinamido)-5-oxopentanoic acid], for which the IC50 is 5.8 µM. In the case of `CCOC(=O)N1CCN(C(=O)[C@H](CCC(=O)O)NC(=O)c2cc(NCCOC)cc(-c3ccccc3)n2)CC1` [(S)-5-(4-(ethoxycarbonyl)piperazin-1-yl)-4-(4-(2-methoxyethylamino)-6-phenylpicolinamido)-5-oxopentanoic acid] it was 14 µM; in that of `CCOC(=O)N1CCN(C(=O)[C@H](CCC(=O)O)NC(=O)c2cc(N(C)CCS(C)(=O)=O)cc(-c3ccccc3)n2)CC1` [(S)-5-(4-(ethoxycarbonyl)piperazin-1-yl)-4-(4-(methyl(2-(methylsulfonyl)ethyl)amino)-6-phenylpicolinamido)-5-oxopentanoic acid], 7.6 µM; in that of `CCOC(=O)N1CCN(C(=O)[C@H](CCC(=O)O)NC(=O)c2cc(OC)cc(-c3ccccc3)n2)CC1` [(S)-5-(4-(ethoxycarbonyl)piperazin-1-yl)-4-(4-methoxy-6-phenylpicolinamido)-5-oxopentanoic acid], 39 µM. For the molecule `CCOC(=O)N1CCN(C(=O)[C@H](CCC(=O)O)NC(=O)c2cc(OCC3CCNCC3)cc(-c3ccccc3)n2)CC1` [(S)-5-(4-(ethoxycarbonyl)piperazin-1-yl)-5-oxo-4-(6-phenyl-4-(piperidin-4-ylmethoxy)picolinamido)pentanoic acid], the IC50 worked out at 4 µM. In the case of `CCOC(=O)N1CCN(C(=O)[C@H](CCC(=O)O)NC(=O)c2cc(NCC3CCNCC3)cc(-c3ccccc3)n2)CC1` [(S)-5-(4-(ethoxycarbonyl)piperazin-1-yl)-5-oxo-4-(6-phenyl-4-(piperidin-4-ylmethylamino)picolinamido)pentanoic acid] it was 8.5 µM; in that of `CCOC(=O)N1CCN(C(=O)[C@H](CCC(=O)O)NC(=O)c2cc(OC3CCNCC3)cc(-c3ccccc3)n2)CC1` [(S)-5-(4-(ethoxycarbonyl)piperazin-1-yl)-5-oxo-4-(6-phenyl-4-(piperidin-4-yloxy)picolinamido)pentanoic acid], 1.9 µM; in that of `CCCNc1cc(C(=O)N[C@@H](CCC(=O)O)C(=O)N2CCN(C(=O)OCC)CC2)nc(-c2ccccc2)c1` [(S)-5-(4-(ethoxycarbonyl)piperazin-1-yl)-5-oxo-4-(6-phenyl-4-(propylamino)picolinamido)pentanoic acid], 28 µM. As for `CCOC(=O)N1CCN(C(=O)[C@H](CCC(=O)O)NC(=O)c2cc(NC3CCOCC3)cc(-c3ccccc3)n2)CC1` [(S)-5-(4-(ethoxycarbonyl)piperazin-1-yl)-5-oxo-4-(6-phenyl-4-(tetrahydro-2H-pyran-4-ylamino)picolinamido)pentanoic acid], the IC50 is 21 µM. In the case of `CCCCCCCOC(=O)N1CCN(C(=O)[C@H](CCC(=O)O)NC(=O)c2cccc(-c3ccccc3)n2)CC1` [(S)-5-(4-(heptyloxycarbonyl)piperazin-1-yl)-5-oxo-4-(6-phenylpicolinamido)pentanoic acid], the 50% inhibitory concentration (IC50) was 56 µM. Turning to `CCCCCCOC(=O)N1CCN(C(=O)[C@H](CCC(=O)O)NC(=O)c2cc(N3CCC(COC)CC3)cc(-c3ccccc3)n2)CC1` [(S)-5-(4-(hexyloxycarbonyl)piperazin-1-yl)-4-(4-(4-(methoxymethyl)piperidin-1-yl)-6-phenylpicolinamido)-5-oxopentanoic acid], the IC50 worked out at 7.6 µM. For `CCCCCCOC(=O)N1CCN(C(=O)[C@H](CCC(=O)O)NC(=O)c2cc(N3CCC(O)CC3)cc(-c3ccccc3)n2)CC1` [(S)-5-(4-(hexyloxycarbonyl)piperazin-1-yl)-4-(4-(4-hydroxypiperidin-1-yl)-6-phenylpicolinamido)-5-oxopentanoic acid], the IC50 is 6.4 µM. Consider `CCCCCCOC(=O)N1CCN(C(=O)[C@H](CCC(=O)O)NC(=O)c2cccc(-c3ccccc3)n2)CC1` [(S)-5-(4-(hexyloxycarbonyl)piperazin-1-yl)-5-oxo-4-(6-phenylpicolinamido)pentanoic acid], for which the IC50 is 19 µM.

Regarding `COCCOc1cc(C(=O)N[C@@H](CCC(=O)O)C(=O)N2CCN(C(=O)OC(C)C)CC2)nc(-c2ccccc2)c1` [(S)-5-(4-(isopropoxycarbonyl)piperazin-1-yl)-4-(4-(2-methoxyethoxy)-6-phenylpicolinamido)-5-oxopentanoic acid], the half-inhibitory concentration (IC50) is 20.1 µM. In the case of `COC(=O)N1CCN(C(=O)[C@H](CCC(=O)O)NC(=O)c2cccc(-c3ccccc3)n2)CC1` [(S)-5-(4-(methoxycarbonyl)piperazin-1-yl)-5-oxo-4-(6-phenylpicolinamido)pentanoic acid], the IC50 is over 100 µM. As for `CCCCCOC(=O)N1CCN(C(=O)[C@H](CCC(=O)O)NC(=O)c2cccc(-c3ccccc3)n2)CC1` [(S)-5-oxo-5-(4-(pentyloxycarbonyl)piperazin-1-yl)-4-(6-phenylpicolinamido)pentanoic acid], the IC50 amounted to 15 µM.
